Experimental data taken from patent publication US20240067632A1, “WEE1 Degrading Compounds and Uses Thereof” (Bristol-Myers Squibb Company, priority 2022, published 2024).

Experiments:
[1] = test system: MKN45 cells; experiment: MKN45 cell proliferation assay (Cell-Titer-Glo, 120 h); type: cell-based; conditions: for EC50: Homo sapiens, MKN-45, 120 h, Cell-Titer-Glo, growth inhibition, read-out: MKN45 Cell Prolif. 120 hr (EC50); for MKN45 Cell Prolif. 120 hr (Ymin-Obs): minimal percent of DMSO control observed in the concentrations tested
How it was run: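 Cells seeded at 400/well onto pre-printed 10-point half-log dilutions (top 1 or 10 uM, 0.1% DMSO final), in triplicate, and grown 120 h at 37 C. Viability by Cell-Titer-Glo luminescence, blank-subtracted and normalised to DMSO; EC50 from four-parameter logistic fit, with observed minimal % of control recorded as Ymin-obs.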

[2] = target: T1, WEE1 (Homo sapiens, UniProt P30291+Q96SW2); experiment: WEE1-ePL degradation assay (LentiX-WEE1-ePL-GSPT1-ND cells, InCELL Hunter luminescence, 4 h); type: cell-based; conditions: 293T-LentiX WEE1-ePL cells; for 293T-LentiX WEE1-ePL Degradation 4 hr (Ymin): lower limit of the fit (0 = luciferase inhibitor, Ymax = DMSO control); for DC50: read-out: 293T-LentiX WEE1-ePL Degradation 4 hr (EC50)
T1 construct: C-terminal ePL-tagged (DiscoverX, Fremont, CA) full-length WEE1 expression construct; expressed in transfected cells; host or cells: LentiX-HEK293T (Invitrogen), lentiviral transduction; co-expressing GSPT1-GN (G576N, lacking the first 158 amino acids)
How it was run: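 First, compounds were pre-plated as 10-point, 3-fold dilutions (top 1 uM or 10 uM) with DMSO control; next, WEE1-ePL-expressing HEK293T cells were added and held 4 h at 37 °C; finally, InCELL Hunter reagent was applied for 30 min before luminescence reading. A 4PL fit gave EC50 and Ymin.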

O=C1CCC(N2Cc3cc(O[C@H]4CCN(Cc5ccc6ccccc6n5)C4)ccc3C2=O)C(=O)N1 (stereo partly drawn) [3-(1-oxo-5-{[(3S)-1-[(quinolin-2-yl)methyl]pyrrolidin-3-yl]oxy}-2,3-dihydro-1H-isoindol-2-yl)piperidine-2,6-dione]
EC50 [1]: > 10000 nM | MKN45 Cell Prolif. 120 hr (Ymin-Obs) [1]: 81.45 | 293T-LentiX WEE1-ePL Degradation 4 hr (Ymin) [2]: 58 | DC50 [2]: 25.6 nM

O=C1CCC(N2Cc3cc(O[C@H]4CCN(Cc5ccnc6ccccc56)C4)ccc3C2=O)C(=O)N1 (stereo partly drawn) [3-(1-oxo-5-{[(3S)-1-[(quinolin-4-yl)methyl]pyrrolidin-3-yl]oxy}-2,3-dihydro-1H-isoindol-2-yl)piperidine-2,6-dione]
EC50 [1]: 56.8 nM | MKN45 Cell Prolif. 120 hr (Ymin-Obs) [1]: 13.21 | 293T-LentiX WEE1-ePL Degradation 4 hr (Ymin) [2]: 33.025 | DC50 [2]: 23.4 nM

O=C1CCC(N2Cc3cc(O[C@H]4CCN(Cc5cccc6ncccc56)C4)ccc3C2=O)C(=O)N1 (stereo partly drawn) [3-(1-oxo-5-{[(3S)-1-[(quinolin-5-yl)methyl]pyrrolidin-3-yl]oxy}-2,3-dihydro-1H-isoindol-2-yl)piperidine-2,6-dione]
EC50 [1]: 104 nM | MKN45 Cell Prolif. 120 hr (Ymin-Obs) [1]: 19 | 293T-LentiX WEE1-ePL Degradation 4 hr (Ymin) [2]: 32.69 | DC50 [2]: 14.6 nM

O=C1CCC(N2Cc3cc(O[C@H]4CCN(Cc5ccc6ncccc6c5)C4)ccc3C2=O)C(=O)N1 (stereo partly drawn) [3-(1-oxo-5-{[(3S)-1-[(quinolin-6-yl)methyl]pyrrolidin-3-yl]oxy}-2,3-dihydro-1H-isoindol-2-yl)piperidine-2,6-dione]
EC50 [1]: 30.4 nM | MKN45 Cell Prolif. 120 hr (Ymin-Obs) [1]: 14.87 | 293T-LentiX WEE1-ePL Degradation 4 hr (Ymin) [2]: 28.66 | DC50 [2]: 3.45 nM

O=C1CCC(N2Cc3cc(O[C@H]4CCN(Cc5ccc6cccnc6c5)C4)ccc3C2=O)C(=O)N1 (stereo partly drawn) [3-(1-oxo-5-{[(3S)-1-[(quinolin-7-yl)methyl]pyrrolidin-3-yl]oxy}-2,3-dihydro-1H-isoindol-2-yl)piperidine-2,6-dione]
EC50 [1]: > 10000 nM | MKN45 Cell Prolif. 120 hr (Ymin-Obs) [1]: 76.22 | 293T-LentiX WEE1-ePL Degradation 4 hr (Ymin) [2]: 57 | DC50 [2]: 30.1 nM

O=C1CCC(N2Cc3cc(O[C@H]4CCN(Cc5cnc6ccccc6n5)C4)ccc3C2=O)C(=O)N1 (stereo partly drawn) [3-(1-oxo-5-{[(3S)-1-[(quinoxalin-2-yl)methyl]pyrrolidin-3-yl]oxy}-2,3-dihydro-1H-isoindol-2-yl)piperidine-2,6-dione]
EC50 [1]: > 10000 nM | MKN45 Cell Prolif. 120 hr (Ymin-Obs) [1]: 64.16 | 293T-LentiX WEE1-ePL Degradation 4 hr (Ymin) [2]: 43.82 | DC50 [2]: 46.9 nM

O=C1CCC(N2Cc3cc(O[C@H]4CCN(Cc5ccc6nccnc6c5)C4)ccc3C2=O)C(=O)N1 (stereo partly drawn) [3-(1-oxo-5-{[(3S)-1-[(quinoxalin-6-yl)methyl]pyrrolidin-3-yl]oxy}-2,3-dihydro-1H-isoindol-2-yl)piperidine-2,6-dione]
EC50 [1]: 879 nM | MKN45 Cell Prolif. 120 hr (Ymin-Obs) [1]: 70.03 | 293T-LentiX WEE1-ePL Degradation 4 hr (Ymin) [2]: 43 | DC50 [2]: 14.2 nM

O=C1CCC(N2Cc3cc(O[C@H]4CCN(Cc5cnn(-c6cccnc6)c5)C4)ccc3C2=O)C(=O)N1 (stereo partly drawn) [3-(1-oxo-5-{[(3S)-1-{[1-(pyridin-3-yl)-1H-pyrazol-4-yl]methyl}pyrrolidin-3-yl]oxy}-2,3-dihydro-1H-isoindol-2-yl)piperidine-2,6-dione]
EC50 [1]: 269 nM | MKN45 Cell Prolif. 120 hr (Ymin-Obs) [1]: 11.53 | 293T-LentiX WEE1-ePL Degradation 4 hr (Ymin) [2]: 31.735

O=C1CCC(N2Cc3cc(O[C@H]4CCN(Cc5ccc6nc(CC(F)(F)F)ccc6c5)C4)ccc3C2=O)C(=O)N1 (stereo partly drawn) [3-(1-oxo-5-{[(3S)-1-{[2-(2,2,2-trifluoroethyl)quinolin-6-yl]methyl}pyrrolidin-3-yl]oxy}-2,3-dihydro-1H-isoindol-2-yl)piperidine-2,6-dione]
EC50 [1]: 20.8 nM | MKN45 Cell Prolif. 120 hr (Ymin-Obs) [1]: 13.32 | 293T-LentiX WEE1-ePL Degradation 4 hr (Ymin) [2]: 33.67 | DC50 [2]: 5.4 nM

O=C1CCC(N2Cc3cc(O[C@H]4CCN(Cc5ccc6nc(-n7ccccc7=O)ccc6c5)C4)ccc3C2=O)C(=O)N1 (stereo partly drawn) [3-(1-oxo-5-{[(3S)-1-{[2-(2-oxo-1,2-dihydropyridin-1-yl)quinolin-6-yl]methyl}pyrrolidin-3-yl]oxy}-2,3-dihydro-1H-isoindol-2-yl)piperidine-2,6-dione]
EC50 [1]: 1.93 nM | MKN45 Cell Prolif. 120 hr (Ymin-Obs) [1]: 8.805 | 293T-LentiX WEE1-ePL Degradation 4 hr (Ymin) [2]: 35 | DC50 [2]: 2.27 nM

O=C1CCC(N2Cc3cc(O[C@H]4CCN(Cc5ccc6nc(N7CCCCC7=O)ccc6c5)C4)ccc3C2=O)C(=O)N1 (stereo partly drawn) [3-(1-oxo-5-{[(3S)-1-{[2-(2-oxopiperidin-1-yl)quinolin-6-yl]methyl}pyrrolidin-3-yl]oxy}-2,3-dihydro-1H-isoindol-2-yl)piperidine-2,6-dione]
EC50 [1]: 0.959 nM | MKN45 Cell Prolif. 120 hr (Ymin-Obs) [1]: 7.56 | 293T-LentiX WEE1-ePL Degradation 4 hr (Ymin) [2]: 31.5 | DC50 [2]: 1.73 nM

O=C1CCC(N2Cc3cc(O[C@H]4CCN(Cc5ccc6nc(N7CCCC7=O)ccc6c5)C4)ccc3C2=O)C(=O)N1 (stereo partly drawn) [3-(1-oxo-5-{[(3S)-1-{[2-(2-oxopyrrolidin-1-yl)quinolin-6-yl]methyl}pyrrolidin-3-yl]oxy}-2,3-dihydro-1H-isoindol-2-yl)piperidine-2,6-dione]
EC50 [1]: 7.19 nM | MKN45 Cell Prolif. 120 hr (Ymin-Obs) [1]: 10.36 | 293T-LentiX WEE1-ePL Degradation 4 hr (Ymin) [2]: 31 | DC50 [2]: 1.83 nM

O=C1CCC(N2Cc3cc(O[C@H]4CCN(Cc5ccc6nc(N7CCOCC7=O)ccc6c5)C4)ccc3C2=O)C(=O)N1 (stereo partly drawn) [3-(1-oxo-5-{[(3S)-1-{[2-(3-oxomorpholin-4-yl)quinolin-6-yl]methyl}pyrrolidin-3-yl]oxy}-2,3-dihydro-1H-isoindol-2-yl)piperidine-2,6-dione]
EC50 [1]: 2.91 nM | MKN45 Cell Prolif. 120 hr (Ymin-Obs) [1]: 6.88 | 293T-LentiX WEE1-ePL Degradation 4 hr (Ymin) [2]: 32 | DC50 [2]: 2.43 nM

CC#Cc1ncc2cc(CN3CC[C@H](Oc4ccc5c(c4)CN(C4CCC(=O)NC4=O)C5=O)C3)ccc2n1 (stereo partly drawn) [3-(1-oxo-5-{[(3S)-1-{[2-(prop-1-yn-1-yl)quinazolin-6-yl]methyl}pyrrolidin-3-yl]oxy}-2,3-dihydro-1H-isoindol-2-yl)piperidine-2,6-dione]
EC50 [1]: 51.6 nM | MKN45 Cell Prolif. 120 hr (Ymin-Obs) [1]: 8.56 | 293T-LentiX WEE1-ePL Degradation 4 hr (Ymin) [2]: 29 | DC50 [2]: 38.9 nM

CC#Cc1ccc2cc(CN3CC[C@H](Oc4ccc5c(c4)CN(C4CCC(=O)NC4=O)C5=O)C3)ccc2n1 (stereo partly drawn) [3-(1-oxo-5-{[(3S)-1-{[2-(prop-1-yn-1-yl)quinolin-6-yl]methyl}pyrrolidin-3-yl]oxy}-2,3-dihydro-1H-isoindol-2-yl)piperidine-2,6-dione]
EC50 [1]: 2.02 nM | MKN45 Cell Prolif. 120 hr (Ymin-Obs) [1]: 8.03 | 293T-LentiX WEE1-ePL Degradation 4 hr (Ymin) [2]: 29.33 | DC50 [2]: 3.18 nM

O=C1CCC(N2Cc3cc(O[C@H]4CCN(Cc5ccc6nc(Oc7ccccn7)ccc6c5)C4)ccc3C2=O)C(=O)N1 (stereo partly drawn) [3-(1-oxo-5-{[(3S)-1-{[2-(pyridin-2-yloxy)quinolin-6-yl]methyl}pyrrolidin-3-yl]oxy}-2,3-dihydro-1H-isoindol-2-yl)piperidine-2,6-dione]
EC50 [1]: 2.88 nM | MKN45 Cell Prolif. 120 hr (Ymin-Obs) [1]: 7.62 | 293T-LentiX WEE1-ePL Degradation 4 hr (Ymin) [2]: 35 | DC50 [2]: 6.39 nM

O=C1CCC(N2Cc3cc(O[C@H]4CCN(Cc5ccc6nc(N7CCCC7)ccc6c5)C4)ccc3C2=O)C(=O)N1 (stereo partly drawn) [3-(1-oxo-5-{[(3S)-1-{[2-(pyrrolidin-1-yl)quinolin-6-yl]methyl}pyrrolidin-3-yl]oxy}-2,3-dihydro-1H-isoindol-2-yl)piperidine-2,6-dione]
EC50 [1]: 6.02 nM | MKN45 Cell Prolif. 120 hr (Ymin-Obs) [1]: 11.865 | 293T-LentiX WEE1-ePL Degradation 4 hr (Ymin) [2]: 34 | DC50 [2]: 3.97 nM

O=C1CCC(N2Cc3cc(O[C@H]4CCN(Cc5ccc6nc(C(F)(F)F)ncc6c5)C4)ccc3C2=O)C(=O)N1 (stereo partly drawn) [3-(1-oxo-5-{[(3S)-1-{[2-(trifluoromethyl)quinazolin-6-yl]methyl}pyrrolidin-3-yl]oxy}-2,3-dihydro-1H-isoindol-2-yl)piperidine-2,6-dione]
EC50 [1]: 33.2 nM | MKN45 Cell Prolif. 120 hr (Ymin-Obs) [1]: 14.74 | 293T-LentiX WEE1-ePL Degradation 4 hr (Ymin) [2]: 29.67 | DC50 [2]: 8.11 nM

O=C1CCC(N2Cc3cc(O[C@H]4CCN(Cc5cc6ccccc6nc5C(F)(F)F)C4)ccc3C2=O)C(=O)N1 (stereo partly drawn) [3-(1-oxo-5-{[(3S)-1-{[2-(trifluoromethyl)quinolin-3-yl]methyl}pyrrolidin-3-yl]oxy}-2,3-dihydro-1H-isoindol-2-yl)piperidine-2,6-dione]
EC50 [1]: 257 nM | MKN45 Cell Prolif. 120 hr (Ymin-Obs) [1]: 73.03 | 293T-LentiX WEE1-ePL Degradation 4 hr (Ymin) [2]: 39.87 | DC50 [2]: 29.3 nM

O=C1CCC(N2Cc3cc(O[C@H]4CCN(Cc5ccc6nc(C(F)(F)F)ccc6c5)C4)ccc3C2=O)C(=O)N1 (stereo partly drawn) [3-(1-oxo-5-{[(3S)-1-{[2-(trifluoromethyl)quinolin-6-yl]methyl}pyrrolidin-3-yl]oxy}-2,3-dihydro-1H-isoindol-2-yl)piperidine-2,6-dione]
EC50 [1]: 7.29 nM | MKN45 Cell Prolif. 120 hr (Ymin-Obs) [1]: 8.76 | 293T-LentiX WEE1-ePL Degradation 4 hr (Ymin) [2]: 24.72 | DC50 [2]: 5.42 nM

O=C1CCC(N2Cc3cc(O[C@H]4CCN(Cc5ccc6ncc(C(F)(F)F)cc6c5)C4)ccc3C2=O)C(=O)N1 (stereo partly drawn) [3-(1-oxo-5-{[(3S)-1-{[3-(trifluoromethyl)quinolin-6-yl]methyl}pyrrolidin-3-yl]oxy}-2,3-dihydro-1H-isoindol-2-yl)piperidine-2,6-dione]
EC50 [1]: 15.9 nM | MKN45 Cell Prolif. 120 hr (Ymin-Obs) [1]: 11.23 | 293T-LentiX WEE1-ePL Degradation 4 hr (Ymin) [2]: 32 | DC50 [2]: 2.85 nM
